Source: article doi:10.1101/2025.06.19.660642, “Discovery of orally bioavailable Zika and West Nile Virus antiviral compounds targeting the NS2B-NS3 protease” (bioRxiv, 2025)

The compounds below were run against T1, ZIKV NS2B-NS3 protease (Zika virus, UniProt A0A024B7W1) (assay: ZIKV NS2B-NS3 protease biochemical FRET assay). Details: Ligand efficiency = pKi / heavy atom count.
T1 construct: directed at the co-expressed ZIKV NS2B-NS3 protease
T1 sequence (A0A024B7W1 1503-1680): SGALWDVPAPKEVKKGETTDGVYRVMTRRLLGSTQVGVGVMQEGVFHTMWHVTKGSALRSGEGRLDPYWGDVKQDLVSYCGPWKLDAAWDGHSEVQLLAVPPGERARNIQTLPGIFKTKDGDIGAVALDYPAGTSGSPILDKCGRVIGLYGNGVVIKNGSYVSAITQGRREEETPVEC
T1 sequence (A0A024B7W1 1425-1464): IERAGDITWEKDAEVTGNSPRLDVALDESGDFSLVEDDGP

Row | Compound | Ligand efficiency (LE)
1 | NCc1cccc(NC(=O)c2cc(Cl)cc(NC(=O)OCc3ccccc3)c2)c1 [ASAP-0016806] | 0.259

Same assay, conditions: ZIKV NS2B-NS3 Ki

Row | Compound | Ki [µM]
2 | NCc1cccc(NC(=O)c2cc(Cl)cc(NC(=O)OCc3ccccc3)c2)c1 [ASAP-0016806] | 4.3

Same assay, conditions: ZIKV NS2B-NS3 Ki (uM), library 1, supplement

Row | Compound | Ki [µM]
3 | NCc1ccc(NC(=O)c2cc(Cl)cc(NC(=O)OCc3ccccc3)c2)cc1 [ASAP-0017575, NCc1ccc(NC(=O)c2cc(Cl)cc(NC(=O)OCc3ccccc3)c2)cc1] | 9.23
4 | NCc1nccc(NC(=O)c2cc(Cl)cc(NC(=O)OCc3ccccc3)c2)n1 [ASAP-0017603, NCc1nccc(NC(=O)c2cc(Cl)cc(NC(=O)OCc3ccccc3)c2)n1] | > 89.3
5 | NC[C@H]1CC[C@H](NC(=O)c2cc(Cl)cc(NC(=O)OCc3ccccc3)c2)CC1 [ASAP-0017626, NC[C@H]1CC[C@H](NC(=O)c2cc(Cl)cc(NC(=O)OCc3ccccc3)c2)CC1] | > 89.3
6 | O=C(Nc1cc(Cl)cc(C(=O)Nc2cccc(CC3CCNCC3)c2)c1)OCc1ccccc1 [ASAP-0017638, O=C(Nc1cc(Cl)cc(C(=O)Nc2cccc(CC3CCNCC3)c2)c1)OCc1ccccc1] | > 89.3
7 | NCCc1cccc(NC(=O)c2cc(Cl)cc(NC(=O)OCc3ccccc3)c2)c1 [ASAP-0017670, NCCc1cccc(NC(=O)c2cc(Cl)cc(NC(=O)OCc3ccccc3)c2)c1] | 3.51
8 | NC1(c2cccc(NC(=O)c3cc(Cl)cc(NC(=O)OCc4ccccc4)c3)c2)CCC1 [ASAP-0017671, NC1(c2cccc(NC(=O)c3cc(Cl)cc(NC(=O)OCc4ccccc4)c3)c2)CCC1] | > 89.3
9 | CN(C(=O)c1cc(Cl)cc(NC(=O)OCc2ccccc2)c1)c1ccc(CN)cc1 [ASAP-0017677, CN(C(=O)c1cc(Cl)cc(NC(=O)OCc2ccccc2)c1)c1ccc(CN)cc1] | > 89.3
10 | NCC1CCN(C(=O)c2cc(Cl)cc(NC(=O)OCc3ccccc3)c2)CC1 [ASAP-0017689, NCC1CCN(C(=O)c2cc(Cl)cc(NC(=O)OCc3ccccc3)c2)CC1] | 87.4
11 | NCCc1ccc(NC(=O)c2cc(Cl)cc(NC(=O)OCc3ccccc3)c2)cc1 [ASAP-0017692, NCCc1ccc(NC(=O)c2cc(Cl)cc(NC(=O)OCc3ccccc3)c2)cc1] | 9.64
12 | NC1CCN(C(=O)c2cc(Cl)cc(NC(=O)OCc3ccccc3)c2)CC1 [ASAP-0017695, NC1CCN(C(=O)c2cc(Cl)cc(NC(=O)OCc3ccccc3)c2)CC1] | > 89.3
13 | O=C(Nc1cc(Cl)cc(C(=O)Nc2cccc(C3CCNCC3)c2)c1)OCc1ccccc1 [ASAP-0017708, O=C(Nc1cc(Cl)cc(C(=O)Nc2cccc(C3CCNCC3)c2)c1)OCc1ccccc1] | 11.2
14 | NCCNC(=O)c1cc(Cl)cc(NC(=O)OCc2ccccc2)c1 [ASAP-0017736, NCCNC(=O)c1cc(Cl)cc(NC(=O)OCc2ccccc2)c1] | > 89.3
15 | NC[C@H]1CC[C@H](CNC(=O)c2cc(Cl)cc(NC(=O)OCc3ccccc3)c2)CC1 [ASAP-0017744, NC[C@H]1CC[C@H](CNC(=O)c2cc(Cl)cc(NC(=O)OCc3ccccc3)c2)CC1] | 23.1
16 | CC(C)N1CCc2nc(NC(=O)c3cc(Cl)cc(NC(=O)OCc4ccccc4)c3)sc2C1 [ASAP-0020812, CC(C)N1CCc2nc(NC(=O)c3cc(Cl)cc(NC(=O)OCc4ccccc4)c3)sc2C1] | > 89.3
17 | CN(C)Cc1cc(NC(=O)c2cc(Cl)cc(NC(=O)OCc3ccccc3)c2)sn1 [ASAP-0020825, CN(C)Cc1cc(NC(=O)c2cc(Cl)cc(NC(=O)OCc3ccccc3)c2)sn1] | > 89.3
18 | Cn1nc2c(c1NC(=O)c1cc(Cl)cc(NC(=O)OCc3ccccc3)c1)CNC2 [ASAP-0020883, Cn1nc2c(c1NC(=O)c1cc(Cl)cc(NC(=O)OCc3ccccc3)c1)CNC2] | > 89.3
19 | CN1CCn2nc(NC(=O)c3cc(Cl)cc(NC(=O)OCc4ccccc4)c3)cc2C1 [ASAP-0020900, CN1CCn2nc(NC(=O)c3cc(Cl)cc(NC(=O)OCc4ccccc4)c3)cc2C1] | > 89.3

Same assay, conditions: library 1, supplement

Row | Compound | ZIKV NS2B-NS3 pKi
20 | C[C@@H](N)c1ccc(NC(=O)c2cc(Cl)cc(NC(=O)OCc3ccccc3)c2)cc1 [ASAP-0017733, C[C@@H](N)c1ccc(NC(=O)c2cc(Cl)cc(NC(=O)OCc3ccccc3)c2)cc1 ¦&1:1¦] | 4.88

Same assay, conditions: library 1, supplement; read-out: ZIKV NS2B-NS3 Ki

Row | Compound | Ki [µM]
21 | C[C@@H](N)c1ccc(NC(=O)c2cc(Cl)cc(NC(=O)OCc3ccccc3)c2)cc1 [ASAP-0017733, C[C@@H](N)c1ccc(NC(=O)c2cc(Cl)cc(NC(=O)OCc3ccccc3)c2)cc1 ¦&1:1¦] | 13.1

Same assay, conditions: read-out: inhibition in biochemical assay

Row | Compound | inhibition at 100 µM [%]
22 | CN(C)Cc1ccc(C(=O)Nc2cc(Cl)cc(C(=O)NC(C)(C)CO)c2)[nH]1 [ASAP-0015373] | 30
